# Results reported in paper PMC11930985 (Nature Communications, 2025).
# Several values for one entry are separate records, joined by “and”; a condition that tells them apart may be missing. Equal entries are not always repeated. Where two headings read alike, the source gives them in different places.
# Assays:
# AML/MDS patients = assay: Dose-limiting toxicity assessment, 3+3 dose escalation; type: in vivo
# Text: The study consisted of a phase 1b dose escalation, followed by a phase 2a cohort expansion. […] Due to the introduction of an enhanced formulation, the study was extended with a second dose escalation cohort following a 3 + 3 study design, also with expansion at the selected dose (Fig. 1).
# The conventional 3 + 3 study design gives a 71% chance of escalation if the true but unknown rate of DLT is 20%, and <50% chance of escalation if the true but unknown rate of DLT is >30%. […] Based on a one-sided, within-group test of proportions comparing an anticipated ORR of >20% against the null hypothesis rate of 5%, with power 80% and type I error 0.2 (suitable as evidence of a trend worthy of future study), a sample size of up to 14 evaluable patients was selected for B2. On the same basis, for B5 an initial sample size of 14 relapsed and 14 refractory AML patients was planned. However, upon regulatory review by the FDA, this was reduced to 20 R/R AML patients with 4 refractory AML patients. For this early-stage study, the efficacy analyses are secondary endpoints, and no account was taken of the multiplicity inherent in the assessment of several, presumably non-independent criteria, for ORR.
# monkeys = tested on: monkeys; parameters: method as in Investigator's Brochure (IB) version 5.0; details: ref Investigator's Brochure (IB) version 5.0, cited from earlier work
# [1] = Bemcentinib plasma PK (LC-MS/MS, population PK model); type: in vivo, human; details: for Cmax / AUC / half-life: human, plasma, oral; for Cmax: read-out: mean Cmax at steady state
# Method: Thereafter, a pre-dose sample was collected at all study visits ( > Cycle 3 up to and including Cycle 15) and at End of Study. PK samples were measured using a fully validated liquid chromatography with tandem mass spectrometry method for bemcentinib. […] The PopPK model was developed by evaluating various structural models including 1 compartment and 2 compartment models. Covariate analysis was performed using a forward addition and backward elimination procedure, from which a preliminary base model was selected. During covariate analysis, continuous covariates were centered on the median population values, and the most common or most relevant category was used as the reference value for categorical covariates. A visual predictive check (VPC) was conducted to verify that the final model adequately predicted both the central tendency and variability of the observed data across studies or by proton pump inhibitor use. Quantification of parameter uncertainty in the final model was assessed by nonparametric bootstrap analysis. Population PK analysis was performed using the nonlinear mixed effects modelling methodology as implemented in the NONMEM program Version 7.4.4[35]. Data postprocessing was performed using R (Version 3.6.1)[36]. Individual population PK model parameters were estimated using NONMEM with the following $ESTIMATION parameters: METHOD = COND INTERACTION […] = 0 […] = 3. These parameters were subsequently used to predict individual steady-state profiles with a dense PK sampling scheme using the SIMULATION method in NONMEM.
smiles,measurement,setting,value
Nc1nc(Nc2ccc3c(c2)CC[C@@H](N2CCCC2)CC3)nn1-c1cc2c(nn1)-c1ccccc1CCC2 [Bemcentinib],Formal criteria for a maximum tolerated dose,AML/MDS patients; DE cohort,not met
same,Recommended phase 2 dose (loading/maintenance),"AML/MDS patients; human, in vivo, 3 weeks",400/200
same,Dose-limiting toxicities (DLT) observed,AML/MDS patients; in vivo,Three
same,QTc change compared to vehicle control and pre-dose values,monkeys; 7.5 mg/kg and 15 mg/kg single oral,below 10%
same,Heart rate,monkeys; 7.5 mg/kg – 60 mg/kg single oral,"recoverable, non-adverse decreases"
same,Magnitude of the QTc effect,monkeys; highest dose level (60 mg/kg single oral),17%
same,mean Ctrough at steady state,"[1]; DE cohort, maintenance 100 mg daily",136 ± 109 ng/mL
same,mean Ctrough at steady state,"[1]; DE cohort, maintenance 300 mg daily",382 ± 193 ng/mL
same,bemcentinib concentration,"[1]; Figure 4, individual patients, concentration paired with maximum pAXL(Y779) inhibition",358 ng/mL and 79 ng/mL and 276 ng/mL and 103 ng/mL and 178 ng/mL and 74 ng/mL and 173 ng/mL and 0 ng/mL and 122 ng/mL and 105 ng/mL and 73.3 ng/mL and 6.36 ng/mL
same,mean Ctrough at steady state,"[1]; LDAC cohort, maintenance 200 mg daily",196 ± 124 ng/mL
same,bemcentinib concentration,"[1]; Supplementary Figure 1b, individual patients, concentration paired with maximum pSTAT5 (Y694) inhibition",358 ng/mL and 145 ng/mL and 276 ng/mL and 103 ng/mL and 124 ng/mL and 74 ng/mL and 118 ng/mL and 0 ng/mL and 81.5 ng/mL and 112 ng/mL and 270 ng/mL
same,bemcentinib concentration,"[1]; Supplementary Figure 1c, individual patients, concentration paired with maximum pERK1/2 (T202/Y204) inhibition",358 ng/mL and 78.9 ng/mL and 276 ng/mL and 134 ng/mL and 130 ng/mL and 74.6 ng/mL and 118 ng/mL and 0 ng/mL and 98 ng/mL and 94 ng/mL and 73.4 ng/mL and 270 ng/mL
same,bemcentinib concentration,"[1]; Supplementary Figure 1d, individual patients, concentration paired with maximum pAKT (S473) inhibition",408 ng/mL and 78.9 ng/mL and 276 ng/mL and 103 ng/mL and 130 ng/mL and 74 ng/mL and 225 ng/mL and 0 ng/mL and 81.5 ng/mL and 183 ng/mL and 73.4 ng/mL and 270 ng/mL
same,Cmax,"[1]; 100 mg, DE cohort, maintenance 100 mg daily, 10 patients",140 ± 110 ng/mL
same,AUC,"[1]; 100 mg, DE cohort, maintenance 100 mg daily, read-out: AUC",3310 ± 2630 ng·h/mL
same,half-life,"[1]; 200 mg daily, LDAC cohort, read-out: median t1/2 (converted)",5.17 days
same,Cmax,"[1]; 200 mg, DE cohort, maintenance 200 mg daily, 21 patients",162 ± 121 ng/mL
same,AUC,"[1]; 200 mg, DE cohort, maintenance 200 mg daily, read-out: AUC",3810 ± 2860 ng·h/mL
same,Cmax,"[1]; 200 mg, LDAC cohort, maintenance 200 mg daily, 35 patients",210 ± 128 ng/mL
same,AUC,"[1]; 200 mg, LDAC cohort, maintenance 200 mg daily, read-out: mean AUC",4890 ± 3020 ng·h/mL
same,Cmax,"[1]; 300 mg, DE cohort, maintenance 300 mg daily, 5 patients",398 ± 200 ng/mL
same,AUC,"[1]; 300 mg, DE cohort, maintenance 300 mg daily, read-out: AUC",9390 ± 4720 ng·h/mL
same,half-life,"[1]; DE cohort, maintenance 100 mg daily, read-out: median half-life (t1/2) (converted)",6.62 days
same,half-life,"[1]; DE cohort, maintenance 200 mg daily, read-out: median half-life (t1/2) (converted)",5.17 days
same,half-life,"[1]; DE cohort, maintenance 300 mg daily, read-out: median half-life (t1/2) (converted)",6.5 days
